Patent US6593323B1, “Benzimidazole compounds and drugs containing the same” (Fuji Photo Film Co., Ltd., priority 1999, dated 2003)

System: mouse peritoneal macrophages
Test: Suppression of foaming of macrophages: cholesterol ester (CE) production in mouse peritoneal macrophages loaded with liposomes
Assay type: cell-based
Details: for CE yield (%): test compound 5 μM, 16 h with liposomes, cholesterol ester yield relative to control without test compound = 100% (smaller value = more potent suppression); for suppression of foaming of macrophages / cholesterol ester synthesis (result in words): mouse peritoneal macrophages, 5 μM
Method: Activity of the compounds of the present invention for suppressing the foaming of macrophages, which triggers arterial sclerosis, was examined. (1) In vitro experiment using mouse peritoneal macrophages.
15-Week old female ICR mice (Nippon SLC) were subjected to bleeding by cutting off their cervicalis, and Hanks buffer (Nippon Seiyaku) was injected into their peritoneal cavities. After abdominal regions of the mice were massaged, the buffer was recovered immediately, and then the resulting buffer was centrifuged at 1,000 r.p.m. for five minutes to collect peritoneal macrophages. Then, the collected macrophages were suspended in GTI medium (Wako Pure Chemical Industries), and inoculated onto a 24-well microtiter plate. After the macrophages were cultivated at 37° C. under 5% CO2 for two hours, the culture medium was changed with Dulbecco Modified Eagle Medium (MEM, Nippon Seiyaku). The macrophages were further cultivated at 37° C. under 5% CO2 for 16 hours, and then a test compound and liposomes were added to the culture.
1) Test compound: dissolved in DMSO (Wako Pure Chemical Industries),
2) Liposomes: PC/PS/DCP/CHOL=50/50/10/75 (nmol)
PC: Phosphatidylcholine (Funakoshi);
PS: Phosphatidylserine (Funakoshi);
DCP: Dicetylphosphate (Funakoshi);
CHOL: Cholesterol (Sigma)
After cultivation was further continued at 37° C. under 5% CO2 for 16 hours, lipid fraction was extracted with chloroform and methanol. The extracted lipid fraction was dissolved in isopropyl alcohol, and the produced cholesterol ester (CE) was quantified by an enzymatic luminescence method. Yield of the cholesterol ester was calculated as a relative ratio based on yield of the control as 100% where no test compound was added.

Compound | CE yield (%) | suppression of foaming of macrophages / cholesterol ester synthesis (result in words)
O=C1CCC(=O)N1CCCCCSc1nc2ccccc2[nH]1 [Compound 11, N-(5-(benzimidazolyl-2-thio)pentyl)succinimide] | 19 | –
CC(C)Oc1cccc(OC(C)C)c1NC(=O)CN1CCN(CCCSc2nc3ccccc3[nH]2)CC1 [Ref. 2, reference compound] | 95 | almost no inhibitory effect
3-(5-(1-methylbenzimidazolyl-2-thio)pentyl)-5-methyl-2,4-oxazolidinedione [Compound 14] | 20 | –
O=C1CSC(=O)N1CCCCCSc1nc2ccccc2[nH]1 [Compound 2, 3-(5-(benzimidazolyl-2-thio)pentyl)-2,4-thiazolidinedione] | 19 | –
O=C1CSC(=O)N1CCOCCSc1nc2ccccc2[nH]1 [Compound 22] | 23 | –
CCC(=O)n1c(SCCCCCN2C(=O)OC(C)C2=O)nc2ccccc21 (stereo not shown) [Compound 15, 3-(5-(1-propionylbenzimidazolyl-2-thio)pentyl)-5-methyl-2,4-oxazolidinedione] | 12 | –
O=C1c2ccccc2C(=O)N1CCCCSCc1nc2ccccc2[nH]1 [Ref. 1, reference compound] | 89 | completely inactive
3-(6-(5-chlorobenzothiazolyl-2-thio)hexyl)-2,4-thiazolidinedione [Compound 16] | 15 | –
CCCCCCN(CCCCCSc1nc2ccccc2[nH]1)C(=O)Nc1ccc(F)cc1F [Ref. 3, reference compound] | 78 | almost no inhibitory effect
O=C1CSC(=O)N1CCOCCOCCSc1nc2ccccc2[nH]1 [Compound 23, 3-(2-(2-(2-benzimidazolyl-2-thio)ethoxy)ethoxy)ethyl-2,4-thiazolidinedione] | 22 | –
